# Measurements published in a melting point compilation (Tetko et al.; mined from patent text by program, amines drawn as free bases though some values may be those of a salt).
row,melting point,SMILES
1,127 to 128 °C,CC(C)(c1ccc(Oc2ccc([N+](=O)[O-])cc2C(F)(F)F)cc1)c1cccc(C(C)(C)c2ccc(Oc3ccc([N+](=O)[O-])cc3C(F)(F)F)cc2)c1
2,234 to 236 °C,O=C(Nc1ccc(C(=O)N2Cc3ccccc3Cc3ccccc32)cc1)C1CC=CCC1 (centres undefined)
3,77 to 79 °C,CCCCN(C=O)C1CC(C)(C)N(O)C(C)(C)C1
4,165 to 168 °C,CCCOc1ccc(-c2c(C)c(=O)cc(-c3ccccc3)n2-c2ccccc2)cc1
5,159 to 160 °C,CCc1cc(NC(=O)C(CS)Cc2ccccc2)cc(C(=O)O)c1 (centres undefined)
6,282 °C,O=C(COc1cccc(C(=O)O)c1)NCCNC(=O)COc1cccc(C(=O)O)c1
7,117 to 118 °C,CCC(=O)c1cc(C)nc2c1c(C)nn2-c1c(C)cc(C)cc1C
8,> 250 °C,Cc1nnc(-c2nsc3ccc([N+](=O)[O-])cc23)o1
9,210 °C,CS(=O)(=O)C(=C1CN(C(c2ccccc2)c2ccccc2)C1)c1cccc(F)c1
10,300 to 305 °C,COc1ccccc1-c1ccc2cnc(Nc3cc4c(cc3F)CCC(=O)N4)nn12
11,87.6 °C,CC(C)(C)[Si](C)(C)O[C@@H](CCCC(=O)N1C(=O)OC[C@@H]1Cc1ccccc1)c1ccc(F)cc1
12,75.8 °C,CCCCCCCCCCCCCCCCCCN1C(=O)CCC1=O
13,165 to 167 °C,COC(=O)c1ccc(CNC(=O)c2ccc3n2Cc2ccccc2N(C(=O)COc2ccc(Cl)cc2C)C3)cc1
14,160 to 161 °C,O=C(N[C@H]1CCc2c(F)cc(F)cc2C1)C(F)(F)F
15,132 °C,CC(C(=S)c1cc(NC=O)ccn1)S(C)=O (centres undefined)
16,40 to 42 °C,CCCCCCCCCCCCCCCC(=O)OCC(COCc1ccccc1)OC(=O)CCCCCCCCCCCCCCC (centres undefined)
17,236 to 238 °C,CC(O)CNS(=O)(=O)c1ccc(Nc2nc(OCC3CCCCC3)c3nc[nH]c3n2)cc1 (centres undefined)
18,188 °C,O=Cc1cnc(Sc2nc3ccccc3[nH]2)s1
19,146 to 148 °C,Cc1ccccc1C(Oc1cc(OCc2ccsc2)ccc1C#N)C(=O)O (racemic)
20,168 to 169 °C,Cc1oc(-c2ccccc2)nc1COc1ccc(O)cc1
21,> 250 °C,COc1cc(Nc2c(C#N)cnc3cc(/C=C/C(=O)O)sc23)c(Cl)cc1Cl
22,184 to 186 °C,CS(=O)(=O)c1nc(Cl)cc(Nc2ccc(C(F)(F)F)cc2)n1
23,53 to 54 °C,CCCCCCCCCC(=O)c1cc(OC)c(Cl)cc1OC
24,73 to 76 °C,CCN(CC)C(=O)C(C)(C)n1cc(C)c(-c2ccccc2Cl)n1

row,melting point,SMILES
1,50 °C,COC(=O)[C@@H]1CCCN1S(=O)(=O)c1ccc(C)c(COc2cccc3c(C)cc(C)nc23)c1C
2,77 to 79 °C,Cc1cc(C2=C(C=CC3CC(O)CC(=O)O3)C(C)(C)CC(O)C2)ccc1F (centres undefined)
3,243 to 246 °C,CCOC(=O)c1cnc2[nH]c(=O)ccc2c1Nc1ccc(OC)cc1
4,105 to 107 °C,COC(=O)c1cccc2c1Nc1c(I)cccc1C2
5,171 °C,CCn1cc(-c2ccccc2)c(=O)c(-c2ccccc2)c1
6,204 °C,CC(=O)OCc1ccc(-c2nc3c(s2)C(=O)c2ccccc2C3=O)o1
7,130 °C,O=[N+]([O-])c1ccc(O)c(CSCC(O)CO)c1 (centres undefined)
8,214 to 215 °C,CCCCC[C@H]1CC[C@H](/C=C/COc2ccc(C(=O)O)cc2)CC1
9,54 °C,CCCCCCCCCCCCCCN(CCCCCCCCCCCCCC)S(=O)(=O)c1ccc(C)cc1
10,170 to 171 °C,CC(=O)NCC1CC1c1cccc2nc(C)cn12 (centres undefined)
11,156 to 158 °C,COC(=O)c1ccc(-c2nc(-c3ccc(C(F)(F)F)cc3)cs2)cc1
12,130 to 134 °C,CCOC(Cc1ccc(NCCc2ccc(OS(C)(=O)=O)cc2)cc1)C(=O)O (centres undefined)
13,57.5 to 58.5 °C,CCCCCCCCCCCC(=O)N1c2ccccc2C(=O)N(C(C)C)S1(=O)=O
14,124 to 126 °C,Cc1cc(Br)ccc1C(=O)NCC(F)(F)F
15,113 to 115 °C,COc1cc(CO)ccc1OCc1nc(-c2cccc(C#N)c2)oc1C
16,156 to 158 °C,CC(C)Nc1nc2cc(F)c(F)cc2n1[C@H]1O[C@@H](CO)[C@H](O)[C@@H]1O
17,85.9 to 90.5 °C,COc1nc(C)c([N+](=O)[O-])cc1C
18,106 to 109 °C,O=C1CCc2ccc(OCCCCBr)cc2N1
19,330 °C,O=c1ncnc2cc3[nH][nH]cc3cc12
20,56 to 57.5 °C,CC(C)(C)c1cc(C=O)c(O)c(C(F)(F)F)c1
21,189 to 193 °C,O=C(O)c1cccn2c(=O)c3c(nc12)CCC3
22,130 to 131 °C,c1ccc(-c2cc[nH]c2-c2ccccc2)cc1
23,179 to 181 °C,Cc1ccccc1-c1noc2c(Cl)c(OCC(=O)O)ccc12
24,39 to 41 °C,O=Cc1cc(-c2ccc(F)cc2F)ccc1OC(F)(F)F

row,melting point,SMILES
1,111 to 112 °C,O=C(O)c1ccc(C(F)F)s1
2,176 °C,CCC(C(=O)c1ccc(Cl)cc1)n1ncn(-c2ccc(N3CCNCC3)cc2)c1=O (centres undefined)
3,211 to 213 °C,NC(=O)C(Cc1ccccc1)=NNc1ccc(C(O)(C(F)(F)F)C(F)(F)F)cc1
4,> 275 °C,Cc1ccccc1-n1c(-c2sc(NC(=O)c3ccccc3)nc2-c2ccccc2)nc2ccccc2c1=O
5,78 to 79 °C,CCCCNC(=O)Oc1ccc(C(O)(CC)c2ccc(Cl)cc2)cc1 (centres undefined)
6,167 to 168 °C,COCc1cc(Cl)cc2c1OC(C(F)(F)F)C(C(=O)O)=C2 (centres undefined)
7,69 to 70 °C,CCCc1cc(Cl)c2oc(Cc3ccccc3)c(C)c2c1O
8,311 °C,Cc1cc(-c2ccc(Cl)cc2)cn2c(-c3nc(-c4ccc(S(N)(=O)=O)cc4)no3)cnc12
9,102 to 104 °C,COC(=O)CC(=O)Nc1cccc(COc2ccc(C(C)=O)c(F)c2)c1
10,102 to 104 °C,CCCC(=O)C1=C(O)CC(c2cc(C3CCCO3)no2)CC1=O (centres undefined)
11,267 to 269 °C,OC1(c2ccc(Cl)c(Cl)c2)c2ccccc2C2=NCCCN21 (centres undefined)
12,175 to 182 °C,O=C(c1cn(C(c2ccccc2)(c2ccccc2)c2ccccc2)cn1)c1cc(Cl)cc2c1OCOC2
13,118 to 120 °C,CCOC(=O)CC1CCCc2cc(O)c(C(=O)c3ccccc3)cc21 (centres undefined)
14,58 °C,COc1cc(CCN2CCN(c3nsc4ccccc34)CC2)c(NC(=O)C=C(C)C)cc1OC
15,249 to 251 °C,CC(=O)NN=C(C)c1ccc2nnn(Cc3ccc4ncccc4c3)c2n1
16,125 to 126 °C,CCOC(=O)C1=C(C)NC(O)(C(Cl)(Cl)Cl)C(C(=O)OCC)C1c1cccc([N+](=O)[O-])c1 (centres undefined)
17,158 °C,CCCc1c(OCCCOc2ccc3ccccc3c2)ccc2c1OC(CCC(=O)O)(CCC(=O)O)CC2=O
18,45 to 47 °C,CCOC(=O)c1ccc(OCCCCCCc2cccc(O)c2O)cc1
19,99 to 101 °C,CCOc1ccc(Oc2ccc(CNC(=O)c3sc(C)nc3C)cc2)cc1
20,209 to 211 °C,O=C(Nc1ccc2cc(CN3CCCC3)ccc2c1)N1CCC(c2ccc(F)cc2)CC1
21,180 to 182 °C,Nc1ccc(SCc2csc(NC=O)n2)cc1
22,221 to 223 °C,CCn1c(C(O)(C(C)C)C(C)C)nc(-c2ccncc2)c1-c1ccc(Cl)cc1
23,180 to 182 °C,C[C@H](N)C(=O)N(CC(=O)O)C1Cc2ccccc2C1
24,223 to 224 °C,CN(C)S(=O)(=O)N1CCN(C(=O)c2ccc(Nc3ccnc4cc(C(F)(F)F)ccc34)cc2)CC1

row,melting point,SMILES
1,175 to 178 °C,O=C(O)C1=Cc2ccc(Cl)cc2OC1C(F)(F)F (centres undefined)
2,62 to 63 °C,CON=C(C#N)c1ccccc1COc1cccc(Cl)c1
3,105 to 108 °C,c1cc(-c2ccc(OCCCN3CCCC3)cc2)ccc1OCCCN1CCCCC1
4,194 to 195 °C,Oc1ccc(-c2ccc(-c3ccc(F)cc3)nc2-c2ccc(OCCN3CCCCC3)cc2)cc1
5,40 to 41 °C,COc1cc2cc(CC(C)C)sc2c(Cl)c1Cl
6,174 °C,N#CC1=C(c2cccs2)Nc2n[nH]cc2C1c1ccccc1Cl (centres undefined)
7,127 to 132 °C,COc1cc2c(cc1O)CC(C)N(Cc1cc(OC)c(OC)c(OC)c1)C2 (centres undefined)
8,> 260 °C,Nc1nc2ccc(S(=O)(=O)n3c(CCC(=O)O)cc4nc(Cl)ccc43)cc2s1
9,112 to 114 °C,CC(c1cccc(C2(c3ccccc3)OCCO2)c1)c1nc(N)no1 (centres undefined)
10,172 to 174 °C,COc1ccc(-c2nc(-c3ccccc3Cl)sc2-c2ccc(S(C)(=O)=O)cc2)cc1
11,104 to 105 °C,COC(=O)CC(C#Cc1cccc(-c2nnc(C)o2)c1)c1ccc(OC)c(OC2CCCC2)c1 (racemic)
12,145 to 147 °C,CC(=O)NC[C@@H]1C[C@H]1c1cccc2nn(C)cc12 (relative stereo)
13,> 232 °C,CCC(CC)N1CSc2cnc(N)nc21
14,112 °C,CN(CCCCOc1ccc(CC2SC(=O)NC2=O)cc1)c1nc2ccccc2o1 (centres undefined)
15,122 to 123 °C,Cc1cccc(C2=NC(C)(C(C)C)C(=S)N2)c1 (centres undefined)
16,149 to 151 °C,CCCCCS(=O)(=O)NC(=O)/C=C/c1cc(C(C)C)nn1Cc1ccc(Cl)cc1Cl
17,130 to 132 °C,O=C1[C@H]2CCC[C@H]2N(C(=O)CBr)c2ccccc2N1CCCc1ccccc1 (relative stereo)
18,125 to 126 °C,COC(=O)[C@H](CC(C)C)NC(=O)[C@@H]1CSC(=O)N1
19,161 to 164 °C,Cc1c(-c2ccc(Cl)cc2)n(Cc2ccc(OCCN3CCCCC3)cc2)c2ccc(O)cc12
20,230 °C,CCOC(=O)c1ncc2[nH]c3ccc(N4CCCS4(=O)=O)cc3c2c1C
21,101 to 103 °C,N#Cc1ccccc1NC(=O)C(=O)N1CCC(Cc2ccc(F)cc2)CC1
22,90 to 92 °C,N#Cc1ncccc1Oc1ccccc1Cl

row,SMILES,melting point
1,Cc1cc(C(=O)NCO)ncc1C(c1c(F)ccc(F)c1F)S(=O)(=O)CCC(C)(F)F (centres undefined),161 to 162 °C
2,CC(=O)NCP(=O)(O)O,171 to 175 °C
3,COC(=O)c1ccc(CC(C)NCC(O)c2ccc(O)c(CO)c2)cc1 (centres undefined),118 to 120 °C
4,CCOP(=O)(NCc1ccc2c(c1)-c1n[nH]c(=O)c3cccc(c13)O2)OCC,222 to 224 °C
5,Nc1ncc(CN2CC=C(c3ccc(F)cc3)CC2)c(N)n1,265 °C
